Structures can show the parent of a compound that is named as a salt. Where two headings read alike, the source gives them in different places.
What was measured:
Type in all cases: in vivo
α-Adrenergic = α-Adrenergic blocking action: antagonism of hypertensive response to phenylephrine in anesthetized rats; settings: for ED50: Rattus norvegicus, iv, read-out: α-blocking (Rat) ED50; for α-blocking (Rat) ED50: i.v.
Procedure: A. α-Adrenergic blocking action: (a) The blood pressure was measured in rats anesthetized with urethane and treated with pentolinium.

β-Adrenergic = β-Adrenergic blocking action: antagonism of isoproterenol induced tachycardia in rats; settings: reserpine pretreated, pentobarbital anesthetized rats, isoproterenol 0.1 μg/Kg iv.; for ED50: Rattus norvegicus, iv; for β-blocking (Rat) ED50: i.v.
Procedure: Bilateral vagotomy was performed at the neck. The effects of the test samples to antagonize the isoproterenol (0.1 μg/Kg iv.) induced tachycardia were measured and the results were shown in Table I.

[1] = test system: spontaneously hypertensive rats; experiment: Antihypertensive effects in spontaneously hypertensive rats, oral administration; settings: at 10 mg/Kg p.o., mean ± S.E. of 5 to 10 animals, measured indirectly from the tail
Procedure: B. Antihypertensive effects in spontaneously hypertensive rats: Oral administration: The systolic blood pressure was measured indirectly from the tail using a programmed electro-sphygmanometer (Nacro Bio-Systems Inc., PE-300) on spontaneously hypertensive rats having a systolic blood pressure of higher than 150 mmHg, the result being shown in Table II.

[2] = urethane anesthetized, pentolinium treated rats, phenylephrine 10 μg/Kg i.v.
[3] = urethane anesthetized, pentolinium treated rats, phenylephrine 10 μg/Kg i.v., hydrochloride

SMILES	ED50 (α-Adrenergic; [2]) [mg/kg]	ED50 (β-Adrenergic) [mg/kg]	antihypertensive effect: change in systolic blood pressure [1] [mmHg]	other results
COc1ccccc1OCC(C)NCC(O)c1ccc(O)c(S(N)(=O)=O)c1.Cl (stereo not drawn) [Example 43, 2-Hydroxy-5-{1-hydroxy-2-[2-(2-methoxyphenoxy)-1-methylethylamino]ethyl}benzenesulfonamide hydrochloride]	0.0091	0.53	-33 ± 6.9	–
COc1cc(C)ccc1OCCNCC(O)c1ccc(C)c(S(N)(=O)=O)c1.Cl (stereo not drawn) [Example 46, 5-{1-Hydroxy-2-[2-(2-methoxy-4-methylphenoxy)ethylamino]-ethyl}-2-methylbenzenesulfonamide hydrochloride]	–	–	-20 ± 4.5	–
CCOc1ccccc1OCCNCC(O)c1ccc(C)c(S(N)(=O)=O)c1.Cl (stereo not drawn) [Example 60, 5-{1-Hydroxy-2-[2-(2-ethoxyphenoxy)ethylamino]ethyl}-2-methylbenzenesulfonamide hydrochloride]	–	–	-31 ± 2.8	–
CCOc1ccccc1OCCNCC(O)c1ccc(OC)c(S(N)(=O)=O)c1.Cl (stereo not drawn) [Example 61, 5-{1-Hydroxy-2-[2-(2-ethoxyphenoxy)ethylamino]ethyl}-2-methoxybenzenesulfonamide hydrochloride]	–	–	-54 ± 5.4	–
COc1ccccc1CCC(C)NCC(O)c1ccc(C)c(S(N)(=O)=O)c1.Cl (stereo not drawn) [36(i2), 5-{1-hydroxy-2-[3-(2-methoxyphenyl)-1-methylpropylamino]ethyl}-2-methylbenzenesulfonamide hydrochloride]	–	–	–	α-blocking (Rat) ED50 (α-Adrenergic; [3]): 0.093 mg/kg; β-blocking (Rat) ED50 (β-Adrenergic; hydrochloride): 0.41 mg/kg; antihypertensive effect: change in systolic blood pressure ([1]; hydrochloride, 10 mg/kg): -33 ± 5.7 mmHg
CC(NCC(O)c1ccc(O)c(S(N)(=O)=O)c1)C1COc2ccccc2O1 (stereo not drawn) [70(i1'), 2-hydroxy-5-{1-hydroxy-2-[1-(1,4-benzodioxan-2-yl)ethylamino]ethyl}benzenesulfonamide]	–	–	-27 ± 6.1	–
COc1ccccc1OCCNCC(O)c1ccc(C)c(S(N)(=O)=O)c1.Cl (stereo not drawn) [Example 47, 5-{1-Hydroxy-2-[2-(2-methoxyphenoxy)ethylamino]ethyl}-2-methylbenzenesulfonamide hydrochloride]	0.034	0.16	-35 ± 6.4	–
Cc1ccc(C(O)CNCCOc2ccccc2CO)cc1S(N)(=O)=O (stereo not drawn) [Example 15, 5-{1-Hydroxy-2-[2-(2-hydroxymethylphenoxy)ethylamino]-ethyl}-2-methylbenzenesulfonamide]	0.13	0.15	-11 ± 4.3	–
COc1ccccc1CCC(C)NCC(O)c1ccc(C)c(S(N)(=O)=O)c1.Cl (stereo not drawn) [36(i1), 5-{1-hydroxy-2-[3-(2-methoxyphenyl)-1-methylpropylamino]ethyl}-2-methylbenzenesulfonamide hydrochloride]	–	–	–	α-blocking (Rat) ED50 (α-Adrenergic; [3]): 1.2 mg/kg; β-blocking (Rat) ED50 (β-Adrenergic; hydrochloride): 0.071 mg/kg; antihypertensive effect: change in systolic blood pressure ([1]; hydrochloride, 10 mg/kg): -18 ± 6.1 mmHg
Cc1ccc(C(O)CNC(C)C2COc3ccccc3O2)cc1S(N)(=O)=O (stereo not drawn) [Example 28]	1.1	0.42	-23 ± 4.3	–
Cc1ccc(C(O)CNCCOc2ccc(O)cc2)cc1S(N)(=O)=O.Cl (stereo not drawn) [Example 45, 5-{1-Hydroxy-2-[2-(4-hydroxyphenoxy)ethylamino]ethyl}-2-methylbenzenesulfonamide hydrochloride]	0.86	0.013	–	–
COc1ccc(C(O)CNC(C)CCc2ccccc2)cc1S(N)(=O)=O.Cl (stereo not drawn) [Example 25, 5-[1-Hydroxy-2-(1-methyl-3-phenylpropylamino)ethyl]-2-methoxybenzenesulfonamide hydrochloride]	1.3	0.035	–	–
COc1ccccc1OCC(C)NCC(O)c1ccc(C)c(S(N)(=O)=O)c1 (stereo not drawn) [69(i1 + i2), 5-{1-hydroxy-2-[2-(2-methoxyphenoxy)-1-methylethylamino]ethyl}-2-methylbenzenesulfonamide]	–	–	–	α-blocking (Rat) ED50 (α-Adrenergic; [2]): 0.27 mg/kg; β-blocking (Rat) ED50 (β-Adrenergic): 0.083 mg/kg; antihypertensive effect: change in systolic blood pressure ([1]; 10 mg/kg): -43 ± 5.8 mmHg
COc1cc(C(O)CNC(C)CCc2ccccc2)cc(S(N)(=O)=O)c1.Cl (stereo not drawn) [Example 30, 3-[1-Hydroxy-2-(1-methyl-3-phenylpropylamino)ethyl]-5-methoxybenzenesulfonamide hydrochloride]	1.8	0.052	–	–
CCOc1ccccc1OCCNCC(O)c1ccc(O)c(S(N)(=O)=O)c1.Cl (stereo not drawn) [Example 62, 2-Hydroxy-5-{1-hydroxy-2-[2-(2-ethoxyphenoxy)ethylamino]-ethyl}benzenesulfonamide hydrochloride]	–	–	-47 ± 6.6	–
COc1ccccc1CCC(C)NCC(O)c1ccc(C)c(S(N)(=O)=O)c1.Cl (stereo not drawn) [36(i1 + i2), 5-{1-Hydroxy-2-[3-(2-methoxyphenyl)-1-methylpropylamino]-ethyl}-2-methylbenzenesulfonamide hydrochloride]	–	–	–	α-blocking (Rat) ED50 (α-Adrenergic; [3]): 0.43 mg/kg; β-blocking (Rat) ED50 (β-Adrenergic; hydrochloride): 0.095 mg/kg; antihypertensive effect: change in systolic blood pressure ([1]; hydrochloride, 10 mg/kg): -40 ± 6.6 mmHg
C=CCOc1ccccc1OCCNCC(O)c1ccc(C)c(S(N)(=O)=O)c1.Cl (stereo not drawn) [Example 18, 5-{2-[2-(2-Allyloxyphenoxy)ethylamino]-1-hydroxyethyl}-2-methylbenzenesulfonamide hydrochloride]	–	–	-34 ± 5.2	–
COc1ccccc1OCC(C)NCC(O)c1ccc(C)c(S(N)(=O)=O)c1 (stereo not drawn) [69(i1), 5-{1-hydroxy-2-[2-(2-methoxyphenoxy)-1-methylethylamino]ethyl}-2-methylbenzenesulfonamide]	–	–	–	α-blocking (Rat) ED50 (α-Adrenergic; [2]): 0.24 mg/kg; β-blocking (Rat) ED50 (β-Adrenergic): 0.057 mg/kg; antihypertensive effect: change in systolic blood pressure ([1]; 10 mg/kg): -28 ± 7.7 mmHg
COc1cc(O)ccc1OCCNCC(O)c1ccc(C)c(S(N)(=O)=O)c1 (stereo not drawn) [Example 13, 5-{1-Hydroxy-2-[2-(4-hydroxy-2-methoxyphenoxy)ethylamino]ethyl}-2-methylbenzenesulfonamide]	0.23	0.014	–	–
COc1ccc(C(O)CNC(C)C2COc3ccccc3O2)cc1S(N)(=O)=O (stereo not drawn) [72(i1'), 5-{1-hydroxy-2-[1-(1,4-benzodioxan-2-yl)ethylamino]ethyl}-2-methoxybenzenesulfonamide hydrochloride (i1 ')]	–	–	-30 ± 4.3	–
CC(CCc1ccccc1)NCC(O)c1ccc(N)c(S(N)(=O)=O)c1 (stereo not drawn) [Example 64, 2-Amino-5-[1-hydroxy-2-(1-methyl-3-phenylpropylamino)ethyl]benzenesulfonamide]	0.2	0.12	–	–
COc1ccccc1OCC(C)(C)NCC(O)c1ccc(C)c(S(N)(=O)=O)c1 (stereo not drawn) [Example 9]	0.89	0.26	-25 ± 4.2	–
Cc1ccc(C(O)CNCCOc2ccccc2O)cc1S(N)(=O)=O (stereo not drawn) [Example 63, 5-{1-Hydroxy-2-[2-(2-hydroxyphenoxy)ethylamino]ethyl}-2-methylbenzenesulfonamide]	0.27	0.08	–	–
CCOc1cc(CO)ccc1OCCNCC(O)c1ccc(C)c(S(N)(=O)=O)c1 (stereo not drawn) [Example 52, 5-{1-Hydroxy-2-[2-(2-ethoxy-4-hydroxymethylphenoxy)ethylamino]ethyl}-2-methylbenzenesulfonamide]	1.1	0.022	–	–
COc1ccccc1OCC(C)NCC(O)c1ccc(C)c(S(N)(=O)=O)c1 (stereo not drawn) [69(i2), 5-{1-hydroxy-2-[2-(2-methoxyphenoxy)-1-methylethylamino]ethyl}-2-methylbenzenesulfonamide]	–	–	–	α-blocking (Rat) ED50 (α-Adrenergic; [2]): 0.054 mg/kg; β-blocking (Rat) ED50 (β-Adrenergic): 0.47 mg/kg; antihypertensive effect: change in systolic blood pressure ([1]; 10 mg/kg): -32 ± 6.7 mmHg
CC(CCc1ccccc1)NCC(O)c1ccc(O)c(C(N)=O)c1 (stereo not drawn) [Labetalol, 5-[1-hydroxy-2-(1-methyl-3-phenyl-propyl)aminoethyl]salicylamide, reference compound]	–	–	-10 ± 3.6	ED50 (α-Adrenergic): 1.1 mg/kg
Cc1ccc(C(O)CNC(C)CCc2ccccc2)cc1S(N)(=O)=O.Cl (stereo not drawn) [Example 24, 5-[1-hydroxy-2-(1-methyl-3-phenylpropylamino)ethyl]-2-methylbenzenesulfonamide hydrochloride]	–	–	-27 ± 6.1	–
CCOc1ccccc1OCC(C)NCC(O)c1ccc(C)c(S(N)(=O)=O)c1.Cl (stereo not drawn) [Example 39, 5-{1-Hydroxy-2-[2-(2-ethoxyphenoxy)-1-methylethylamino]-ethyl}-2-methylbenzenesulfonamide hydrochloride]	0.066	0.27	-11 ± 5.5	–
COc1ccccc1OCCNCC(O)c1ccc(OC)c(S(N)(=O)=O)c1.Cl (stereo not drawn) [Example 48, 5-{1-Hydroxy-2-[2-(2-methoxyphenoxy)ethylamino]ethyl}-2-methoxybenzenesulfonamide hydrochloride]	–	–	-49 ± 4.9	–
COc1cc(CO)ccc1OCCNCC(O)c1ccc(C)c(S(N)(=O)=O)c1 (stereo not drawn) [Example 50]	0.3	0.049	–	–

Reference: patent US4217305A, “Phenylethanolamine derivatives” (Yamanouchi Pharmaceutical Co., Ltd., priority 1977, dated 1980)
